Laboratory results from the NIST ThermoML archive (doi:10.1016/j.jct.2008.01.012).
± gives the expanded uncertainty stated by the source.

What was measured:
[1] = Liquid, Diaphragm manometer
[2] = excess molar enthalpy (molar enthalpy of mixing); xn = mol fraction of the nth substance listed; settings: 303.15 K, 101 kPa, Liquid, Calvet calorimetry

CCN(CC)CCCN [N,N-diethylpropane-1,3-diamine]
[1]
Settings | vapor or sublimation pressure [kPa]
303.15 K | 0.31 ± 0.014
313.15 K | 0.586 ± 0.026
323.15 K | 1.053 ± 0.046
333.15 K | 1.809 ± 0.079
343.15 K | 2.987 ± 0.13

CCN(CC)CCCN [N,N-diethylpropane-1,3-diamine] + CCCCCCC
[2]
Settings | excess molar enthalpy [kcal/mol]
x1 = 0.0503 | 0.0645 ± 0.00263
x1 = 0.1038 | 0.121 ± 0.00502
x1 = 0.1491 | 0.16 ± 0.00645
x1 = 0.2452 | 0.217 ± 0.00884
x1 = 0.3961 | 0.255 ± 0.0103
x1 = 0.4516 | 0.258 ± 0.0105
x1 = 0.5013 | 0.255 ± 0.0105
x1 = 0.5973 | 0.235 ± 0.00956
x1 = 0.7014 | 0.199 ± 0.00813
x1 = 0.7987 | 0.149 ± 0.00598
x1 = 0.8974 | 0.0834 ± 0.00335

CCCCCCC [heptane]
[1]
Settings | vapor or sublimation pressure [kPa]
303.15 K | 7.786 ± 0.34
313.15 K | 12.32 ± 0.54
323.15 K | 18.85 ± 0.82
333.15 K | 27.98 ± 1.2
343.15 K | 40.43 ± 1.8

CCN(CC)CCCN [N,N-diethylpropane-1,3-diamine] + CCCCCC
[2]
Settings | excess molar enthalpy [kcal/mol]
x1 = 0.0798 | 0.107 ± 0.0043
x1 = 0.1311 | 0.152 ± 0.00621
x1 = 0.212 | 0.202 ± 0.00813
x1 = 0.2521 | 0.215 ± 0.00884
x1 = 0.3083 | 0.232 ± 0.00956
x1 = 0.3089 | 0.232 ± 0.00956
x1 = 0.3472 | 0.239 ± 0.0098
x1 = 0.3858 | 0.24 ± 0.0098
x1 = 0.4188 | 0.241 ± 0.0098
x1 = 0.4682 | 0.241 ± 0.0098
x1 = 0.4835 | 0.241 ± 0.0098
x1 = 0.5079 | 0.239 ± 0.0098
x1 = 0.5984 | 0.229 ± 0.00932
x1 = 0.7107 | 0.194 ± 0.00789
x1 = 0.802 | 0.146 ± 0.00598
x1 = 0.8762 | 0.0978 ± 0.00406

CCN(CC)CCCN [N,N-diethylpropane-1,3-diamine] + CCCCCCCCCCCC
[2]
Settings | excess molar enthalpy [kcal/mol]
x1 = 0.0601 | 0.0915 ± 0.00382
x1 = 0.1207 | 0.161 ± 0.00645
x1 = 0.2122 | 0.242 ± 0.0098
x1 = 0.3099 | 0.298 ± 0.0122
x1 = 0.4093 | 0.325 ± 0.0131
x1 = 0.4522 | 0.328 ± 0.0134
x1 = 0.5054 | 0.327 ± 0.0134
x1 = 0.6037 | 0.312 ± 0.0127
x1 = 0.71 | 0.267 ± 0.011
x1 = 0.8047 | 0.207 ± 0.00837
x1 = 0.9021 | 0.119 ± 0.00478
x1 = 0.9498 | 0.0648 ± 0.00263
